Laboratory results reported in patent USRE39591E1, “6-O-substituted ketolides having antibacterial activity” (Abbott Laboratories, priority 1996, dated 2007).
Values after ≈ are worked out from the molar mass of the structure shown.

System: up to 32 different microorganisms
Assay: in vitro antibacterial activity (MIC), agar dilution on Brain Heart Infusion (BHI) agar with Steers replicator
Assay type: cell-based
Settings: unit assumed
Procedure: Representative compounds of the present invention were assayed in vitro for antibacterial activity as follows: Twelve petri dishes containing successive aqueous dilutions of the test compound mixed with 10 mL of sterilized Brain Heart Infusion (BHI) agar (Difco 0148-01-5) were prepared. Each plate was inoculated with 1:100 (or 1:10 for slow-growing strains, such as Micrococcus and Streptococcus) dilutions of up to 32 different microorganisms, using a Steers replicator block. The inoculated plates were incubated at 35°-37° C. for 20 to 24 hours. In addition, a control plate, using BHI agar containing no test compound, was prepared and incubated at the beginning and end of each test.
An additional plate containing a compound having known susceptibility patterns for the organisms being tested and belonging to the same antibiotic class as the test compound was also prepared and incubated as a further control, as well as to provide test-to-test comparability. Erythromycin A was used for this purpose.
After incubation, each plate was visually inspected. The minimum inhibitory concentration (MIC) was defined as the lowest concentration of drug yielding no growth, a slight haze, or sparsely isolated colonies on the inoculum spot as compared to the growth control.

Compound `CCC1OC(=O)C(C)C(=O)C(C)C(OC2OC(C)CC(N(C)C)C2O)C(C)(OCC=Cc2cncc3ccccc23)CC(C)C(=O)C(C)C2NC(=O)OC12C` (stereo not drawn) [Example 187, R is —CH2CH═CH-(4-isoquinolinyl)] has an MIC (Candida albicans CCH 442 (code TT)) of over 100 µg/mL, an MIC (Enterococcus faecism ATCC 8043 (code II)) of 0.02 µg/mL (≈ 0.0261 µM) and an MIC (Escherichia coli DC-2 (code SS)) of over 100 µg/mL. The MIC (Escherichia coli JUHL (code QQ)) was 100 µg/mL (≈ 131 µM), the MIC (Escherichia coli SS (code RR)) was 0.39 µg/mL (≈ 0.509 µM) and the MIC (Haemophilis influenzae DILL AMP R (code WW)) was 2 µg/mL (≈ 2.61 µM). The MIC (Micrococcus luteus ATCC 4698 (code PP)) was 0.02 µg/mL (≈ 0.0261 µM), the MIC (Micrococcus luteus ATCC 9341 (code OO)) was 0.02 µg/mL (≈ 0.0261 µM) and the MIC (Mycobacterium smegmatis ATCC 114 (code UU)) was 0.78 µg/mL (≈ 1.02 µM). For the same compound, the MIC (Nocardia Asteroides ATCC9970 (code VV)) was 0.1 µg/mL (≈ 0.131 µM), the MIC (Staphylococcus aureus 1775 (code GG)) was over 100 µg/mL and the MIC (Staphylococcus aureus A5177 (code BB)) was 0.1 µg/mL (≈ 0.131 µM). For the same compound, the MIC (Staphylococcus aureus A-5278 (code CC)) was over 100 µg/mL, the MIC (Staphylococcus aureus ATCC 6538P (code AA)) was 0.2 µg/mL (≈ 0.261 µM) and the MIC (Staphylococcus aureus CMX 553 (code FF)) was 0.1 µg/mL (≈ 0.131 µM). For the same compound, the MIC (Staphylococcus aureus CMX 642A (code DD)) was 0.1 µg/mL (≈ 0.131 µM), the MIC (Staphylococcus aureus NCTC10649M (code EE)) was 0.1 µg/mL (≈ 0.131 µM) and the MIC (Staphylococcus epidermidis 3519 (code HH)) was 0.1 µg/mL (≈ 0.131 µM). The MIC (Streptococcus Pneumonia 5649 (code ZZA)) was 0.25 µg/mL (≈ 0.326 µM), the MIC (Streptococcus Pneumonia 5979 (code ZZ)) was over 16 µg/mL and the MIC (Streptococcus Pneumonia ATCC6303 (code XX)) was 0.03 µg/mL (≈ 0.0392 µM). The MIC (Streptococcus Pneumonia GYR 1171 (code YY)) was 0.03 µg/mL (≈ 0.0392 µM), the MIC (Streptococcus agalactiae CMX 508 (code KK)) was 0.02 µg/mL (≈ 0.0261 µM) and the MIC (Streptococcus bovis A-5169 (code JJ)) was at most 0.005 µg/mL. It also gave an MIC (Streptococcus pyogenes 930 (code MM)) of 25 µg/mL (≈ 32.6 µM), an MIC (Streptococcus pyogenes EES61 (code LL)) of 0.01 µg/mL (≈ 0.0131 µM) and an MIC (Streptococcus pyogenes PIU 2548 (code NN)) of 0.1 µg/mL (≈ 0.131 µM).

In the case of `CCC1OC(=O)C(C)C(=O)C(C)C(OC2OC(C)CC(N(C)C)C2O)C(C)(OCC=Cc2ccc3cc(O)c(C(=O)Nc4ccccc4OC)cc3c2)CC(C)C(=O)C(C)C2NC(=O)OC12C` (stereo not drawn) [Example 206, R is —CH2CH═CH-(3-hydroxy-2-(N-(2-methoxyphenyl)amido)-7-napthyl)], the MIC (organism code AA) is reported as 0.78 µg/mL (≈ 0.839 µM), the MIC (organism code BB) is reported as 0.39 µg/mL (≈ 0.419 µM) and the MIC (organism code CC) is reported as over 100 µg/mL. It also gave an MIC (organism code DD) of 0.78 µg/mL (≈ 0.839 µM), an MIC (organism code EE) of 0.78 µg/mL (≈ 0.839 µM) and an MIC (organism code FF) of 0.78 µg/mL (≈ 0.839 µM). For the same compound, the MIC (organism code GG) was over 100 µg/mL, the MIC (organism code HH) was 0.78 µg/mL (≈ 0.839 µM) and the MIC (organism code II) was 0.39 µg/mL (≈ 0.419 µM). The MIC (organism code JJ) was 0.1 µg/mL (≈ 0.108 µM), the MIC (organism code KK) was 0.39 µg/mL (≈ 0.419 µM) and the MIC (organism code LL) was 0.39 µg/mL (≈ 0.419 µM). It also gave an MIC (organism code MM) of over 100 µg/mL, an MIC (organism code NN) of 1.56 µg/mL (≈ 1.68 µM) and an MIC (organism code OO) of 0.2 µg/mL (≈ 0.215 µM). The MIC (organism code PP) was 1.56 µg/mL (≈ 1.68 µM), the MIC (organism code QQ) was over 100 µg/mL and the MIC (organism code RR) was 25 µg/mL (≈ 26.9 µM). It also gave an MIC (organism code SS) of over 100 µg/mL, an MIC (organism code TT) of over 100 µg/mL and an MIC (organism code UU) of 3.1 µg/mL (≈ 3.33 µM). For the same compound, the MIC (organism code VV) was 3.1 µg/mL (≈ 3.33 µM), the MIC (organism code WW) was over 128 µg/mL and the MIC (organism code XX) was 0.5 µg/mL (≈ 0.538 µM). The MIC (organism code YY) was 0.5 µg/mL (≈ 0.538 µM), the MIC (organism code ZZ) was over 128 µg/mL and the MIC (organism code ZZA) was 4 µg/mL (≈ 4.3 µM).

`CCC1OC(=O)C(C)C(=O)C(C)C(OC2OC(C)CC(N(C)C)C2O)C(C)(OCC=Cc2ccc3ncc(-c4ccccc4)cc3c2)CC(C)C(=O)C(C)C2NC(=O)OC12C` (stereo not drawn) [Example 273, Compound of Formula (IX): L is CO, T is NH2, R is —CH2CH═CH-(3-phenyl-6-quinolyl)] was tested, and the MIC (organism code AA) was 0.2 µg/mL, the MIC (organism code BB) was 0.2 µg/mL and the MIC (organism code CC) was over 100 µg/mL. For the same compound, the MIC (organism code DD) was 0.2 µg/mL, the MIC (organism code EE) was 0.2 µg/mL and the MIC (organism code FF) was 0.2 µg/mL. For the same compound, the MIC (organism code GG) was over 100 µg/mL, the MIC (organism code HH) was 0.2 µg/mL and the MIC (organism code II) was 0.1 µg/mL. For the same compound, the MIC (organism code JJ) was 0.02 µg/mL, the MIC (organism code KK) was 0.02 µg/mL and the MIC (organism code LL) was 0.05 µg/mL. It also gave an MIC (organism code MM) of 12.5 µg/mL, an MIC (organism code NN) of 0.39 µg/mL and an MIC (organism code OO) of 0.05 µg/mL. It also gave an MIC (organism code PP) of 0.39 µg/mL, an MIC (organism code QQ) of over 100 µg/mL and an MIC (organism code RR) of 0.78 µg/mL. For the same compound, the MIC (organism code SS) was over 100 µg/mL, the MIC (organism code TT) was over 100 µg/mL and the MIC (organism code UU) was 0.78 µg/mL. The MIC (organism code VV) was 0.39 µg/mL, the MIC (organism code WW) was 8 µg/mL and the MIC (organism code XX) was 0.03 µg/mL. For the same compound, the MIC (organism code YY) was 0.03 µg/mL, the MIC (organism code ZZ) was 16 µg/mL and the MIC (organism code ZZA) was 0.5 µg/mL.
